Experimental findings from article PMC6934184, “Selective DNA-PKcs inhibition extends the therapeutic index of localized radiotherapy and chemotherapy” (The Journal of Clinical Investigation, 2019) are described below.

In this assay the target is T1, CDC7/DBF4 (Homo sapiens, UniProt O00311).
T1 construct: purchased Thermo Fisher Scientific (Life Technologies) SelectScreen
Briefly: SelectScreen LanthaScreen. Type of assay: binding. Conditions: read-out: % displacement. Summed up:
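NU5455 was profiled across the SelectScreen Broad panel of kinase activity and binding assays. Z'LYTE reactions such as CSF1R ran at apparent Km ATP, while the Adapta CAMK1 assay used ATP listed as 10. Values are given as percent.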
(In general: Time-resolved FRET reads energy transfer from a long-lived donor to a nearby acceptor.)

T1 sequence (O00311 whole entry): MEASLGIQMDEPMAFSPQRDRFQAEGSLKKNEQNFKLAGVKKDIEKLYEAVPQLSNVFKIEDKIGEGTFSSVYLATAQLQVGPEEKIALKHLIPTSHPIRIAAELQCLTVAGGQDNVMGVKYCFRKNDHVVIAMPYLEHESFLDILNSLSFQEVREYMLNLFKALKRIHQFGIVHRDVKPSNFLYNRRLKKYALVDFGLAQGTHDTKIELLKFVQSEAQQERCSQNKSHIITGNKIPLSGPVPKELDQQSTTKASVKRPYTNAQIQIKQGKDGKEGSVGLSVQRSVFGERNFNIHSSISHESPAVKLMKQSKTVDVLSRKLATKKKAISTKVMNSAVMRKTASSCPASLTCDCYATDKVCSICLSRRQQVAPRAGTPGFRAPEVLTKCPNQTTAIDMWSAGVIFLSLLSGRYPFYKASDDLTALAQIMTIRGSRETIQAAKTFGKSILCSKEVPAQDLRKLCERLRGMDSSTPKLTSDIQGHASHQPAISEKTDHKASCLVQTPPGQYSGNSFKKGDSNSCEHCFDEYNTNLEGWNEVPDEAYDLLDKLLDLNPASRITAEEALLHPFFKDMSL
T1 sequence (Q9UBU7 whole entry partner): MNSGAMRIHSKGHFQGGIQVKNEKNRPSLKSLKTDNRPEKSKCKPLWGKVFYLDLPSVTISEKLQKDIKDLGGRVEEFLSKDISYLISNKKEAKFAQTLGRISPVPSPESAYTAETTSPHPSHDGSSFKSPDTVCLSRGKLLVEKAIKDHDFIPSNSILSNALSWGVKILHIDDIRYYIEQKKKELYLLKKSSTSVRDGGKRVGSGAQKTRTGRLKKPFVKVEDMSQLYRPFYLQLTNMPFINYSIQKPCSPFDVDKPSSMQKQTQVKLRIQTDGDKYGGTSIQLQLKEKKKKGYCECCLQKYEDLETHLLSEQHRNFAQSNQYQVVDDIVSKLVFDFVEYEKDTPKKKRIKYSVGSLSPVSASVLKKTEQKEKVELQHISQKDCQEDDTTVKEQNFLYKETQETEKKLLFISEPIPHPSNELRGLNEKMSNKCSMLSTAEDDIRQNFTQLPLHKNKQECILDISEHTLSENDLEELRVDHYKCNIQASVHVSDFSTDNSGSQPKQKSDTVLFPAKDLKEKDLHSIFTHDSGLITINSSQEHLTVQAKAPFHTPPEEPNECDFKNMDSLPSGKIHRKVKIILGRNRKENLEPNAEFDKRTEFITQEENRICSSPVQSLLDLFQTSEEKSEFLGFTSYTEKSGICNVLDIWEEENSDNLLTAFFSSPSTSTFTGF

`CN(C(=O)CN1CCOCC1)c1ccc2sc3c(-c4cccc5c(=O)cc(N6CC7CCC(C6)O7)oc45)cccc3c2c1` [NU5455]: the inhibition at 1 µM was 6%.
